Assay results taken from patent US12162878B2 (HINOVA PHARMACEUTICALS INC., priority 2018, dated 2024).

Each molecule was assayed on CWR22RV1 cells (assay: Inhibition of proliferation of CWR22RV1 cells (CCK-8)). Details: Homo sapiens, CWR22Rv1, 144 h, 6 days.
Type: cell-based, human
Experimental: • CWR22RV1 cell line (Cell Bank of Chinese Academy of Sciences, TCHu100) • FBS (Gibco, Cat. No. 10099-141) • 0.01M PBS (Biosharp, Cat. No. 162262) • RIPM1640 (Hyclone, Cat. No. 308090.01) • Penicillin-Streptomycin (Hyclone, Cat. No. SV30010) • Cell counting kit-8 (Signalway Antibody, Cat. No. CP002) • DMSO (Sigma, Cat. No. D5879) • Centrifuge Tube, 15 ml (Excell Bio, Cat. No. CS015-0001) • Cell Culture Dish, (Excell Bio, Cat. No. CS016-0128) • 96-well cell culture cluster (Corning, Cat. No. 3599) • 2. Experimental method (1) Preparation of Buffer
1) CWR22RV1 cells were subcultured in cell culture medium, and the cells in good growth condition were seeded in a 96-well plate, 80 μL for each well, thus the number of cells per well was 1500, then the plate was cultured overnight in a 37° C., 5% CO2 cell incubator.
2) The drug was prepared with dimethyl sulfoxide (DMSO) as a 30 mM stock solution. Prior to use, the solution was diluted 3 times with DMSO, and then diluted with a 3-fold gradient to obtain 9 concentration gradients. Then, each concentration of the compound was further diluted 200 times with the culture solution (to ensure that DMSO concentration in the culture system was 0.1%), 2 repeat wells for each concentration. The diluted solution of each compound (20 μL) was added to the cell culture well (with a final concentration of 10 μM, 3.3 μM, 1.1 μM . . . ), and shaken gently for mixing. In addition, three negative control wells containing only cells and three blank control wells containing only culture medium (20 μL DMSO diluted 200 times with culture medium being added to six wells) were included.
(1) After culturing for 6 days, 10 μL CCK-8 was added to each well and cultured for additional 2.5 h in a 37° C., 5% CO2 cell incubator.
(2) The absorbance (OD value) at 450 nm was measured with a multifunctional microplate reader.
(3) The data was analyzed by the Dose-response-inhibition equation in the software GraphPad Prism6, and the IC50 value was obtained.
`CCS(=O)(=O)Nc1ccc(N2CCC3(CC2)CC3C(=O)O)c(-c2cn(C)c(=O)c3[nH]ccc23)c1` (stereo not drawn) [Compound 20, 6-(4-(ethylsulfonamide)-2-(6-methyl-7-oxo-6,7-dihydro-1H-pyrrolo[2,3-c]pyridin-4-yl)phenyl)-6-aza-spiro[2.5]octan-1-carboxylic acid] showed an IC50 of 550 nM.
`Cn1cc(-c2cc(S(C)(=O)=O)ccc2N2CCC3(CC3)C2)c2cc[nH]c2c1=O` [Compound 24, 6-methyl-4-(5-(methylsulfonyl)-2-(5-aza-spiro[2.4]heptan-5-yl)phenyl)-1H-pyrrolo[2,3-c]pyridin-7(6H)-one] was tested, and the IC50 was 17 nM.
`CCS(=O)(=O)c1ccc(N2CCC3(CC3)C2)c(-c2cn(C)c(=O)c3[nH]ccc23)c1` [Compound 25, 4-(5(ethylsulfonyl)-2-(5-aza-spiro[2.4]heptan-5-yl)phenyl)-6-methyl-1H-pyrrolo[2,3-c]pyridin-7(6H)-one] gave an IC50 of 26 nM.
`Cn1cc(-c2cc(S(C)(=O)=O)ccc2N2CCC3(CC2)CC3)c2cc[nH]c2c1=O` [Compound 26, 6-methyl-4-(5(methylsulfonyl)-2-(6-aza-spiro[2.5]octan-6-yl)phenyl)-1H-pyrrolo[2,3-c]pyridin-7(6H)-one] gave an IC50 of 6 nM.
In the case of `Cn1cc(-c2cc(S(C)(=O)=O)ccc2N2CCCC3(CC3)C2)c2cc[nH]c2c1=O` [Compound 27, 6-methyl-4-(5(methylsulfonyl)-2-(5-aza-spiro[2.5]octan-5-yl)phenyl)-1H-pyrrolo[2,3-c]pyridin-7(6H)-one], the IC50 is reported as 31 nM.
With `Cn1cc(-c2cc(S(=O)(=O)C3CC3)ccc2N2CCCC3(CC3)C2)c2cc[nH]c2c1=O` [Compound 28, 4-(5-(cyclopropylsulfonyl)-2-(5-aza-spiro[2.5]octan-5-yl)phenyl)-6-methyl-1H-pyrrolo[2,3-c]pyridin-7(6H)-one] the IC50 was 36 nM.
For `Cn1cc(-c2cc(S(=O)(=O)C3CC3)ccc2N2CC3(CCC3)C2)c2cc[nH]c2c1=O` [Compound 29, 4-(5-(cyclopropylsulfonyl)-2-(2-aza-spiro[3.3]heptan-2-yl)phenyl)-6-methyl-1H-pyrrolo[2,3-c]pyridin-7(6H)-one], the IC50 was 45 nM.
`Cn1cc(-c2cc(S(C)(=O)=O)ccc2N2CC3(CCC3)C2)c2cc[nH]c2c1=O` [Compound 30, 6-methyl-4-(5-(methylsulfonyl)-2-(2-aza-spiro[3.3]heptan-2-yl)phenyl)-1H-pyrrolo[2,3-c]pyridin-7(6H)-one] showed an IC50 of 38 nM.
`Cn1cc(-c2cc(S(=O)(=O)C3COC3)ccc2N2CC3(CCC3)C2)c2cc[nH]c2c1=O` [Compound 31, 6-methyl-4-(5-(oxetane-3-ylsulfonyl)-2-(2-aza-spiro[3.3]heptan-2-yl)phenyl)-1H-pyrrolo[2,3-c]pyridin-7(6H)-one] gave an IC50 of 50 nM.
With `CCCCS(=O)(=O)c1ccc(N2CC3(CCC3)C2)c(-c2cn(C)c(=O)c3[nH]ccc23)c1` [Compound 32] the IC50 was 65 nM.
Work on `CCS(=O)(=O)c1ccc(N2CC3(CCC3)C2)c(-c2cn(C)c(=O)c3[nH]ccc23)c1` [Compound 33, 4-(5-(ethylsulfonyl)-2-(2-aza-spiro[3.3]heptan-2-yl)phenyl)-6-methyl-1H-pyrrolo[2,3-c]pyridin-7(6H)-one] yielded an IC50 of 45 nM.
Work on `Cn1cc(-c2cc(S(C)(=O)=O)ccc2N2CC3(COC3)C2)c2cc[nH]c2c1=O` [Compound 34, 6-methyl-4-(5-(methylsulfonyl)-2-(2-oxa-6-aza-spiro[3.3]heptan-6-yl)phenyl)-1H-pyrrolo[2,3-c]pyridin-7(6H)-one] yielded an IC50 of 380 nM.
With `CCS(=O)(=O)c1ccc(N2CC3(COC3)C2)c(-c2cn(C)c(=O)c3[nH]ccc23)c1` [Compound 35, 4-(5-(ethylsulfonyl)-2-(2-oxa-6-aza-spiro[3.3]heptan-6-yl)phenyl)-6-methyl-1H-pyrrolo[2,3-c]pyridin-7(6H)-one] the IC50 was 440 nM.
`CCCCS(=O)(=O)c1ccc(N2CC3(COC3)C2)c(-c2cn(C)c(=O)c3[nH]ccc23)c1` [Compound 36, 4-(5-(butylsulfonyl)-2-(2-oxa-6-aza-spiro[3.3]heptan-6-yl)phenyl)-6-methyl-1H-pyrrolo[2,3-c]pyridin-7(6H)-one] was tested, and the IC50 was 560 nM.
`Cn1cc(-c2cc(S(=O)(=O)C3CC3)ccc2N2CC3(COC3)C2)c2cc[nH]c2c1=O` [Compound 37, 4-(5-(cyclopropylsulfonyl)-2-(2-oxa-6-aza-spiro[3.3]heptan-6-yl)phenyl)-6-methyl-1H-pyrrolo[2,3-c]pyridin-7(6H)-one] gave an IC50 of 490 nM.
Molecule `CCOC(=O)C1CC12CCN(c1ccc(S(C)(=O)=O)cc1-c1cn(C)c(=O)c3[nH]ccc13)CC2` (stereo not drawn) [Compound 38, ethyl 6-(2-(6-methyl-7-oxo-6,7-dihydro-1H-pyrrolo[2,3-c]pyridin-4-yl)-4-(methylsulfonyl)phenyl)-6-azaspiro[2.5]octane-1-carboxylate] has an IC50 of 410 nM.
`Cn1cc(-c2cc(S(C)(=O)=O)ccc2N2CCC3(CC2)CC3C(=O)O)c2cc[nH]c2c1=O` (stereo not drawn) [Compound 39, 6-(2-(6-methyl-7-oxo-6,7-dihydro-1H-pyrrolo[2,3-c]pyridin-4-yl)-4-(methylsulfonyl)phenyl)-6-aza-spiro[2.5]octan-1-carboxylic acid] was tested, and the IC50 was 2410 nM.
Work on `[2H]C([2H])([2H])n1cc(-c2cc(NS(=O)(=O)CC)ccc2N2CCC3(CC3)C2)c2cc[nH]c2c1=O` [Compound 40, N-(3-(7-oxo-6-(trideuteromethyl)-6,7-dihydro-1H-pyrrolo[2,3-c]pyridin-4-yl)-4-(5-aza-spiro[2.4]heptan-5-yl)phenyl)ethylsulfonamide] yielded an IC50 of 15 nM.
With `[2H]C([2H])([2H])n1cc(-c2cc(NS(=O)(=O)CC)ccc2N2CCCC3(CC3)C2)c2cc[nH]c2c1=O` [Compound 42, N-(3-(6-trideuteromethyl-7-oxo-6,7-dihydro-1H-pyrrolo[2,3-c]pyridin-4-yl)-4-(5-aza-spiro[2.5]octan-5-yl)phenyl)ethylsulfonamide] the IC50 was 30 nM.
For `[2H]C([2H])([2H])n1cc(-c2cc(NS(=O)(=O)C3CC3)ccc2N2CC3(CCC3)C2)c2cc[nH]c2c1=O` [Compound 43, N-(3-(6-trideuteromethyl-7-oxo-6,7-dihydro-1H-pyrrolo[2,3-c]pyridin-4-yl)-4-(2-aza-spiro[3.3]heptan-2-yl)phenyl)cyclopropanesulfonamide], the IC50 was 50 nM.
Work on `[2H]C([2H])([2H])n1cc(-c2cc(NS(C)(=O)=O)ccc2N2CC3(CCC3)C2)c2cc[nH]c2c1=O` [Compound 44, N-(3-(6-trideuteromethyl-7-oxo-6,7-dihydro-1H-pyrrolo[2,3-c]pyridin-4-yl)-4-(2-aza-spiro[3.3]heptan-2-yl)phenyl)methanesulfonamide] yielded an IC50 of 45 nM.
For `[2H]C([2H])([2H])n1cc(-c2cc(NS(=O)(=O)C3COC3)ccc2N2CC3(CCC3)C2)c2cc[nH]c2c1=O` [Compound 45, N-(3-(6-trideuteromethyl-7-oxo-6,7-dihydro-1H-pyrrolo[2,3-c]pyridin-4-yl)-4-(2-aza-spiro[3.3]heptan-2-yl)phenyl) oxetane-3-sulfonamide], the IC50 was 110 nM.
In the case of `[2H]C([2H])([2H])n1cc(-c2cc(NS(=O)(=O)CCCC)ccc2N2CC3(CCC3)C2)c2cc[nH]c2c1=O` [Compound 46, N-(3-(6-trideuteromethyl-7-oxo-6,7-dihydro-1H-pyrrolo[2,3-c]pyridin-4-yl)-4-(2-aza-spiro[3.3]heptan-2-yl)phenyl)butane-1-sulfonamide], the IC50 is reported as 130 nM.
With `[2H]C([2H])([2H])n1cc(-c2cc(NS(=O)(=O)CC)ccc2N2CC3(CCC3)C2)c2cc[nH]c2c1=O` [Compound 47, N-(3-(6-trideuteromethyl-7-oxo-6,7-dihydro-1H-pyrrolo[2,3-c]pyridin-4-yl)-4-(2-aza-spiro[3.3]heptan-2-yl)phenyl)ethanesulfonamide] the IC50 was 50 nM.
`[2H]C([2H])([2H])n1cc(-c2cc(NS(C)(=O)=O)ccc2N2CC3(COC3)C2)c2cc[nH]c2c1=O` [Compound 48, N-(3-(6-trideuteromethyl-7-oxo-6,7-dihydro-1H-pyrrolo[2,3-c]pyridin-4-yl)-4-(2-oxa-6-aza-spiro[3.3]heptan-6-yl)phenyl)methanesulfonamide] gave an IC50 of 400 nM.
With `[2H]C([2H])([2H])n1cc(-c2cc(NS(=O)(=O)CC)ccc2N2CC3(COC3)C2)c2cc[nH]c2c1=O` [Compound 49, N-(3-(6-trideuteromethyl-7-oxo-6,7-dihydro-1H-pyrrolo[2,3-c]pyridin-4-yl)-4-(2-oxa-6-aza-spiro[3.3]heptan-6-yl)phenyl)ethanesulfonamide] the IC50 was 420 nM.
`[2H]C([2H])([2H])n1cc(-c2cc(NS(=O)(=O)CCCC)ccc2N2CC3(COC3)C2)c2cc[nH]c2c1=O` [Compound 50, N-(3-(6-trideuteromethyl-7-oxo-6,7-dihydro-1H-pyrrolo[2,3-c]pyridin-4-yl)-4-(2-oxa-6-aza-spiro[3.3]heptan-6-yl)phenyl) butane-1-sulfonamide] showed an IC50 of 510 nM.
